Test results from patent publication US20260199323A1, “LIGAND COMPOUNDS FOR E3 UBIQUITIN LIGASE, PROTEIN DEGRADERS DEVELOPED ON BASIS OF LIGAND COMPOUNDS, AND USES THEREOF” (GLUETACS THERAPEUTICS (SHANGHAI) CO., LTD., priority 2021, published 2026).
Where two headings read alike, the source gives them in different places.

Key:
HCC827 = assay: CCK-8 tumor cell proliferation, HCC827; type: cell-based, Human; conditions: Homo sapiens
Procedure: The tumor cells used herein were cultured in a cell culture medium listed in table 4 at 37° C. in an incubator with 5% CO2.
(§1) After 24 h, 100 μL of the inoculated cells were treated with 0.5 μL of the compounds of the present disclosure (including the compounds in Tables 1 and 3, and compounds of examples) at 10 different successively decreasing concentrations (starting at the highest concentration of 10 μM; 5-fold serial dilutions). After the cells were treated with the compounds of the present disclosure for a period of time, the cell viability detection reagent was added to the culture medium for cell viability assessment according to the instructions provided with the CCK-8 kit. […] The growth inhibition of the compounds of the present disclosure on cells was plotted by Prism Graphpad software, and the IC50 values of the compounds of the present disclosure were calculated therefrom.

MDA-MB-231 = assay: CCK-8 tumor cell proliferation, MDA-MB-231; type: cell-based, Human; conditions: Homo sapiens; Table 15, ALK inhibitor based; MDA-MB-231; read-out: IC50 inhibiting proliferation of tumor cells, MDA-MB-231
In short: (§2)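 Using the CCK-8 kit, viability of plated cells is assessed after exposure to compound across ten concentrations (5-fold serial dilution, top 10 μM) added at 24 h. IC50 is obtained by curve fitting of growth inhibition.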

SR = assay: CCK-8 tumor cell proliferation, SR; type: cell-based, Human; conditions: Homo sapiens; Table 15, ALK inhibitor based; SR; read-out: IC50 inhibiting proliferation of tumor cells, SR
In short: as §2

PC-9 = assay: CCK-8 tumor cell proliferation, PC-9; type: cell-based, Human; conditions: Homo sapiens
NCI-H2228 = assay: CCK-8 tumor cell proliferation, NCI-H2228; conditions: Homo sapiens, Table 15, ALK inhibitor based, read-out: IC50 inhibiting proliferation of tumor cells, NCI-H2228
Procedure: (§3) The tumor cells used herein were cultured in a cell culture medium listed in table 4 at 37° C. in an incubator with 5% CO2. Prior to experimentation, all cells used were correctly identified by STR profiling, and tested negative for mycoplasma through routine screenings.
as §1, with “IC50 values of the compounds of the present disclosure (including the compounds in Tables 1 and 3, and compounds of examples) were measured using the Meilun Cell Counting Kit-8 kit from Dalian Meilun Biotech Co., Ltd. Assay details are as follows: tumor cells were seeded in a 96-well plate at a density listed in Table 5. After 24” for “After 24”

NCI-H1975 = assay: CCK-8 tumor cell proliferation, NCI-H1975; type: cell-based, Human; conditions: Homo sapiens; Table 15, ALK inhibitor based; NCI-H1975; read-out: IC50 inhibiting proliferation of tumor cells, NCI-H1975
Procedure: as §3
as §1, with “IC50 values of the compounds of the present disclosure (including the compounds in Tables 1 and 3, and compounds of examples) were measured using the Meilun Cell Counting Kit-8 kit from Dalian Meilun Biotech Co., Ltd. Assay details are as follows: tumor cells were seeded in a 96-well plate at a density listed in Table 5. After 24” for “After 24”

Mino = assay: CCK-8 tumor cell proliferation, Mino; type: cell-based, Human; conditions: Homo sapiens; Table 15, ALK inhibitor based; Mino; read-out: IC50 inhibiting proliferation of tumor cells, Mino
In short: as §2

MV-4-11 = assay: CCK-8 tumor cell proliferation, MV-4-11; type: cell-based, Human; conditions: Homo sapiens, MV4-11; Table 15, ALK inhibitor based; MV-4-11; read-out: IC50 inhibiting proliferation of tumor cells, MV-4-11
In short: as §2

MM.1R = assay: CCK-8 tumor cell proliferation, MM.1R; type: cell-based; conditions: Table 23, compared to Comparative Example compounds, read-out: Inhibitory activity (IC50, nM) against tumor cell proliferation, MM.1R
In short: as §2

Jurkat = assay: CCK-8 tumor cell proliferation, Jurkat; type: cell-based, Human; conditions: Homo sapiens, Table 23, compared to Comparative Example compounds, read-out: Inhibitory activity (IC50, nM) against tumor cell proliferation, Jurkat
In short: as §2

CAL-62 = assay: CCK-8 tumor cell proliferation, CAL-62; type: cell-based, Human; conditions: Homo sapiens; Table 23, compared to Comparative Example compounds; CAL-62; read-out: Inhibitory activity (IC50, nM) against tumor cell proliferation, CAL-62
In short: as §2

THP-1 = assay: CCK-8 tumor cell proliferation, THP-1; type: cell-based, Human; conditions: Table 7, designed based on BTK inhibitors; 72 h
Procedure: as §3
as §1, with “IC50 values of the compounds of the present disclosure (including the compounds in Tables 1 and 3, and compounds of examples) were measured using the Meilun Cell Counting Kit-8 kit from Dalian Meilun Biotech Co., Ltd. Assay details are as follows: tumor cells were seeded in a 96-well plate at a density listed in Table 5. After 24” for “After 24”

[1] = Table 15, ALK inhibitor based, HCC827, read-out: IC50 inhibiting proliferation of tumor cells, HCC827
[2] = Table 15, ALK inhibitor based, PC-9, read-out: IC50 inhibiting proliferation of tumor cells, PC-9

Structure (SMILES) | IC50 (HCC827; [1]) [nM] | IC50 (MDA-MB-231) [nM] | IC50 (SR) [nM] | IC50 (PC-9; [2]) [nM] | IC50 (NCI-H2228) [nM] | IC50 (NCI-H1975) [nM] | IC50 (Mino) [nM] | IC50 (MV-4-11) [nM] | IC50 (MM.1R) [nM] | IC50 (Jurkat) [nM] | IC50 (CAL-62) [nM] | IC50 for inhibiting the proliferation of tumor cells, THP-1 (THP-1) | IC50 (HCC827; HCC827, read-out: IC50 inhibiting proliferation of tumor cells, HCC827) [nM] | IC50 (PC-9; PC-9, read-out: IC50 inhibiting proliferation of tumor cells, PC-9) [nM]
CCc1cc2c(cc1N1CCN(Cc3ccc4c(c3)CN(C3CCC(=O)NC3=O)C4=O)CC1)C(C)(C)c1[nH]c3cc(C#N)ccc3c1C2=O (stereo not shown) [GT-03409, 8-(4-((2-(2,6-dioxopiperidin-3-yl)-1-oxoisoindolin-5-yl)methyl)piperazin-1-yl)-9-ethyl-6,6-dimethyl-11-oxo-6,11-dihydro-5H-benzo[b]carbazole-3-carbonitrile] | 1000 to 5000 | 1000 to 5000 | < 50 | 1000 to 5000 | 1000 to 5000 |  |  |  |  |  |  |  |  | 
CCc1cc2c(cc1N1CCC(N3CCN(Cc4cc(F)c5c(c4)CN(C4CCC(=O)NC4=O)C5=O)CC3)CC1)C(C)(C)c1[nH]c3cc(C#N)ccc3c1C2=O (stereo not shown) [GT-03760, 8-(4-(4-((2-(2,6-dioxopiperidin-3-yl)-7-fluoro-1-oxoisoindolin-5-yl)methyl)piperazin-1-yl)piperidin-1-yl)-9-ethyl-6,6-dimethyl-11-oxo-6,11-dihydro-5H-benzo[b]carbazole-3-carbonitrile] |  |  | < 50 |  | 100 to 500 | 50 to 100 | 100 to 500 | 500 to 1000 |  |  |  |  |  | 
CCc1cc2c(cc1N1CCC(N3CCOCC3)CC1)C(C)(C)c1[nH]c3cc(C#N)ccc3c1C2=O [alectinib, reference compound] |  | 1000 to 5000 | < 50 | 100 to 500 | 1000 to 5000 | 1000 to 5000 | 5000 to 10000 |  |  |  |  |  |  | 
COc1cc(N2CCC(N(C)Cc3ccc4c(c3)CN(C3CCC(=O)NC3=O)C4=O)CC2)ccc1Nc1ncc(Cl)c(Nc2ccccc2P(C)(C)=O)n1 (stereo not shown) [GT-03319, 3-(5-(((1-(4-((5-chloro-4-((2-(dimethylphosphoryl)phenyl)amino)pyrimidin-2-yl)amino)-3-methoxyphenyl)piperidin-4-yl)(methyl)amino)methyl)-1-oxoisoindolin-2-yl)piperidine-2,6-dione] | 50 to 100 | 50 to 100 | < 50 | 50 to 100 | 50 to 100 | < 50 | 1000 to 5000 |  | 100 to 500 | 1000 to 5000 | < 50 |  |  | 
NC(=O)c1ccc(N2CCN(Cc3ccc4c(c3)CN(C3CCC(=O)NC3=O)C4=O)CC2)nc1-c1ccc(Oc2ccccc2)cc1 (stereo not shown) [GT-03636, 6-(4-((2-(2,6-dioxopiperidin-3-yl)-1-oxoisoindolin-5-yl)methyl)piperazin-1-yl)-2-(4-phenoxyphenyl)nicotinamide] |  |  |  |  |  |  |  |  |  |  |  | A+ |  | 
COc1cc(N2CCC(N3CCN(C)CC3)CC2)ccc1Nc1ncc(Cl)c(Nc2ccccc2P(C)(C)=O)n1 [brigatinib, reference compound] |  | 500 to 1000 | < 50 |  | 100 to 500 | 500 to 1000 | 5000 to 10000 |  |  |  |  |  | 100 to 500 | 1000 to 5000
CCc1cc2c(cc1N1CCC(N3CCN(Cc4ccc5c(c4)CN(C4CCC(=O)NC4=O)C5=O)CC3)CC1)C(C)(C)c1[nH]c3cc(C#N)ccc3c1C2=O (stereo not shown) [GT-02972, 8-(4-(4-((2-(2,6-dioxopiperidin-3-yl)-1-oxoisoindolin-5-yl)methyl)piperazin-1-yl)piperidin-1-yl)-9-ethyl-6,6-dimethyl-11-oxo-6,11-dihydro-5H-benzo[b]carbazole-3-carbonitrile] | 1000 to 5000 | 500 to 1000 | < 50 | 500 to 1000 | 500 to 1000 | 500 to 1000 | 500 to 1000 |  |  |  |  |  |  | 
COc1cc(N2CCC(NCc3ccc4c(c3)CN(C3CCC(=O)NC3=O)C4=O)CC2)ccc1Nc1ncc(Cl)c(Nc2ccccc2P(C)(C)=O)n1 (stereo not shown) [GT-03015, 3-(5-(((1-(4-((5-chloro-4-((2-(dimethylphosphoryl)phenyl)amino)pyrimidin-2-yl)amino)-3-methoxyphenyl)piperidin-4-yl)amino)methyl)-1-oxoisoindolin-2-yl)piperidine-2,6-dione] |  |  |  |  | 100 to 500 | 50 to 100 |  |  |  |  |  |  |  | 
